Reference: PubChem BioAssay AID248 (DTP/NCI, 2004)
Values joined by “and” are separate entries in the source; they are usually repeats but may differ in a detail not shown here. Equal entries are not always repeated. Toxic doses and inconclusive results are not listed. No stated cut-off is given here; in the data, active means T/C of 150% or more; inactive means T/C below 125%.

System: L1210 leukemia ip in BDF1 mice, survival T/C
Assay: NCI In Vivo Anticancer Drug Screen. Data for tumor model L1210 Leukemia (intraperitoneal) in B6D2F1 (BDF1) mice
Details: endpoint: mean survival time, higher = longer survival
Summary of the method: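 Read-out is survival time, reported as the treated-group measurement over the vehicle-control measurement.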

[1] = dose: 50.0 mg/kg/injection, schedule: Q01DX009 (ip), vehicle: Klucel (hydroxypropylcellulose) (HPC)
[2] = dose: 100.0 mg/kg/injection, schedule: Q01DX009 (ip), vehicle: Klucel (hydroxypropylcellulose) (HPC)
[3] = dose: 100.0 mg/kg/injection, schedule: Q04DX003 (ip), vehicle: Klucel (hydroxypropylcellulose) (HPC)
[4] = dose: 12.5 mg/kg/injection, schedule: Q01DX009 (ip), vehicle: Klucel (hydroxypropylcellulose) (HPC)
[5] = dose: 200.0 mg/kg/injection, schedule: Q01DX009 (ip), vehicle: Klucel (hydroxypropylcellulose) (HPC)
[6] = dose: 200.0 mg/kg/injection, schedule: Q04DX003 (ip), vehicle: Klucel (hydroxypropylcellulose) (HPC)
[7] = dose: 400.0 mg/kg/injection, schedule: Q01DX009 (ip), vehicle: Klucel (hydroxypropylcellulose) (HPC)
[8] = dose: 400.0 mg/kg/injection, schedule: Q04DX003 (ip), vehicle: Klucel (hydroxypropylcellulose) (HPC)
[9] = dose: 100.0 mg/kg/injection, schedule: Q01DX009 (ip), vehicle: saline with Tween-80
[10] = dose: 100.0 mg/kg/injection, schedule: Q04DX003 (ip), vehicle: saline with Tween-80
[11] = dose: 200.0 mg/kg/injection, schedule: Q01DX009 (ip), vehicle: saline with Tween-80
[12] = dose: 400.0 mg/kg/injection, schedule: Q01DX009 (ip), vehicle: saline with Tween-80
[13] = dose: 50.0 mg/kg/injection, schedule: Q04DX002 (ip), vehicle: saline with Tween-80
[14] = dose: 100.0 mg/kg/injection, schedule: Q04DX002 (ip), vehicle: saline with Tween-80
[15] = dose: 200.0 mg/kg/injection, schedule: Q04DX002 (ip), vehicle: saline with Tween-80

Measured: T/C

Cc1ccc(C)c(CN(C)C)c1O
inactive: dose: 6.0 mg/kg/injection, schedule: Q04DX003 (ip), vehicle: Klucel (hydroxypropylcellulose) (HPC) 98 % of control | dose: 12.5 mg/kg/injection, schedule: Q04DX003 (ip), vehicle: Klucel (hydroxypropylcellulose) (HPC) 96 % of control | dose: 25.0 mg/kg/injection, schedule: Q04DX003 (ip), vehicle: Klucel (hydroxypropylcellulose) (HPC) 89 % of control | [1] 97 % of control | dose: 50.0 mg/kg/injection, schedule: Q04DX003 (ip), vehicle: Klucel (hydroxypropylcellulose) (HPC) 107 % of control | [2] 89 % of control | [3] 100 % of control and 89 % of control

CC(C)C[CH2][Pb]([CH2]CC(C)C)([CH2]CC(C)C)[O]C(=O)C(Cl)(Cl)Cl
inactive: dose: 3.12 mg/kg/injection, schedule: Q01DX009 (ip), vehicle: Klucel (hydroxypropylcellulose) (HPC) 98 % of control | dose: 3.12 mg/kg/injection, schedule: Q04DX002 (ip), vehicle: Klucel (hydroxypropylcellulose) (HPC) 96 % of control | dose: 6.25 mg/kg/injection, schedule: Q01DX009 (ip), vehicle: Klucel (hydroxypropylcellulose) (HPC) 95 % of control | dose: 6.25 mg/kg/injection, schedule: Q04DX002 (ip), vehicle: Klucel (hydroxypropylcellulose) (HPC) 115 % of control | [4] 98 % of control | dose: 12.5 mg/kg/injection, schedule: Q04DX002 (ip), vehicle: Klucel (hydroxypropylcellulose) (HPC) 93 % of control and 87 % of control

O=C1C2C(C(=O)N1c1ccc(Br)cc1)C1(Cl)C(Cl)=C(Cl)C2(Cl)C1(Cl)Cl (stereo not given)
inactive: [2] 104 % of control | [3] 101 % of control | [5] 102 % of control | [6] 111 % of control | [7] 96 % of control | [8] 104 % of control

OC1CCc2c(Cl)sc(Cl)c21 (stereo not given)
inactive: dose: 400.0 mg/kg/injection, schedule: Q01DX001 (ip), vehicle: saline with Tween-80 98 % of control

CCCCOc1ccc(C(=O)N/N=C\c2cc(OC)c(OC)c(OC)c2)cc1
inactive: [3] 94 % of control | [6] 94 % of control | [8] 91 % of control

Cc1ccc(C2NC(=O)c3ccccc3N2)c(C)c1 (stereo not given)
inactive: [1] 100 % of control | [2] 94 % of control and 99 % of control | [3] 103 % of control | dose: 150.0 mg/kg/injection, schedule: Q01DX009 (ip), vehicle: Klucel (hydroxypropylcellulose) (HPC) 93 % of control | [5] 106 % of control | [6] 95 % of control | [7] 96 % of control | [8] 95 % of control

O=[N+]([O-])c1ccc(O)c(/C=N/N2CCN(/N=C/c3cc([N+](=O)[O-])ccc3O)CC2)c1
inactive: dose: 100.0 mg/kg/injection, schedule: Q01DX001 (ip), vehicle: saline 91 % of control | dose: 200.0 mg/kg/injection, schedule: Q01DX001 (ip), vehicle: saline 97 % of control | dose: 400.0 mg/kg/injection, schedule: Q01DX001 (ip), vehicle: saline 97 % of control

COc1cc(NCCS(C)(=O)=O)ccc1C(=O)Nc1ccccc1
inactive: [2] 105 % of control | [3] 97 % of control | [5] 97 % of control | [6] 94 % of control | [7] 101 % of control | [8] 94 % of control

Cn1c(=O)c2c(nc(C3CC3)n2C)n(C)c1=O
inactive: dose: 50.0 mg/kg/injection, schedule: Q01DX001 (ip), vehicle: other 112 % of control | dose: 100.0 mg/kg/injection, schedule: Q01DX001 (ip), vehicle: other 95 % of control | dose: 200.0 mg/kg/injection, schedule: Q01DX001 (ip), vehicle: other 95 % of control

O=C(N/N=C/c1ccccn1)C1CCCO1 (stereo not given)
inactive: dose: 25.0 mg/kg/injection, schedule: Q01DX009 (ip), vehicle: saline 102 % of control | dose: 50.0 mg/kg/injection, schedule: Q01DX009 (ip), vehicle: saline 102 % of control | dose: 100.0 mg/kg/injection, schedule: Q01DX009 (ip), vehicle: saline 98 % of control and 116 % of control | dose: 200.0 mg/kg/injection, schedule: Q01DX009 (ip), vehicle: saline 117 % of control

CCOC(=O)NC(NC(=O)OCC)c1ccc2c(c1)OCO2
inactive: dose: 50.0 mg/kg/injection, schedule: Q01DX001 (ip), vehicle: carboxymethylcellulose (CMC) 105 % of control | dose: 100.0 mg/kg/injection, schedule: Q01DX001 (ip), vehicle: carboxymethylcellulose (CMC) 96 % of control | dose: 200.0 mg/kg/injection, schedule: Q01DX001 (ip), vehicle: carboxymethylcellulose (CMC) 91 % of control | dose: 400.0 mg/kg/injection, schedule: Q01DX001 (ip), vehicle: carboxymethylcellulose (CMC) 94 % of control

C(=N\Nc1nnn(Cc2ccccc2)n1)/c1ccccc1
inactive: [9] 95 % of control | [10] 110 % of control | [11] 102 % of control | dose: 200.0 mg/kg/injection, schedule: Q04DX003 (ip), vehicle: saline with Tween-80 102 % of control | [12] 93 % of control | dose: 400.0 mg/kg/injection, schedule: Q04DX003 (ip), vehicle: saline with Tween-80 90 % of control

BrCc1cc2ccccc2cc1CBr
inactive: [4] 98 % of control | dose: 25.0 mg/kg/injection, schedule: Q01DX009 (ip), vehicle: Klucel (hydroxypropylcellulose) (HPC) 96 % of control | dose: 25.0 mg/kg/injection, schedule: Q04DX003 (ip), vehicle: saline with Tween-80 100 % of control | [1] 93 % of control and 107 % of control | dose: 50.0 mg/kg/injection, schedule: Q04DX003 (ip), vehicle: saline with Tween-80 104 % of control | [10] 96 % of control

COC(=O)c1ccccc1NC(=O)Nc1ccccc1C(F)(F)F
inactive: [9] 89 % of control | [11] 89 % of control | [12] 86 % of control

CC1CC(C)NC(=S)N1 (stereo not given)
inactive: [13] 98 % of control | [14] 102 % of control | [15] 98 % of control

CC(=O)Nc1ccc2ccc3ccccc3c2c1
inactive: [2] 94 % of control | [3] 98 % of control | [5] 95 % of control | [6] 98 % of control | [7] 92 % of control | [8] 94 % of control

NNc1ccc(Br)cc1
inactive: dose: 100.0 mg/kg/injection, schedule: Q04DX002 (ip), vehicle: Klucel (hydroxypropylcellulose) (HPC) 102 % of control | dose: 200.0 mg/kg/injection, schedule: Q04DX002 (ip), vehicle: Klucel (hydroxypropylcellulose) (HPC) 115 % of control

c1ccc(N=Nc2ccnnc2)cc1
inactive: [13] 102 % of control | [14] 91 % of control | [15] 105 % of control
